Source: article PMC8177775 (Cancer Science, 2021)
“Also recorded” adds a separate entry of the source.

Assay: Plasma pharmacokinetics of milademetan
Format: in vivo, human
Conditions: for AUC: AUCtau
[1] = Day 21 of cycle 1, Cohort 2 (90 mg/d) (n = 9), oral QD, mean (SD)
[2] = human, plasma, po, 60 mg/d, Day 1 of cycle 1, Cohort 1 (60 mg/d) (n = 3), oral QD, mean (SD)
[3] = human, plasma, po, 60 mg/d, Day 21 of cycle 1, Cohort 1 (60 mg/d) (n = 2), oral QD, mean (SD)
[4] = human, plasma, po, 90 mg/d, Day 1 of cycle 1, Cohort 2 (90 mg/d) (n = 11), oral QD, mean (SD)

SMILES: CC1(C)CCC2(CC1)N[C@@H](C(=O)N[C@@H]1CC[C@@H](C(N)=O)OC1)[C@H](c1ccnc(Cl)c1F)[C@]21C(=O)Nc2cc(Cl)ccc21 [milademetan, Milademetan]
- Plasma concentration versus dose (60 to 120 mg QD): increased in a dose‐dependent manner; also recorded: dose‐dependent increase
- Ctrough (Day 21 of cycle 1, Cohort 1 (60 mg/d) (n = 2), oral QD, mean (SD)): 192 (29.7) ng/mL
- Accumulation rate [1]: 1.65 (0.440)
- Ctrough [1]: 389 (234) ng/mL
- Ctrough (Day 21 of cycle 1, Cohort 3 (120 mg/d) (n = 1), oral QD, SD not calculated): 552 (NC) ng/mL
- PK linearity (dose range of 60 to 120 mg/day): linear PK
- half-life (human, plasma, oral, Mean t1/2, day 1, across 60- to 120-mg cohorts): 15.1 to 17.9 h
- half-life (human, plasma, oral, Mean t1/2, day 21, across 60- to 120-mg cohorts): 18.1 to 26.1 h
- Tmax (human, plasma, oral, Median Tmax, all cohorts): ~3 h
- AUC(0-inf) (human, plasma, po, 60 mg/d): 6.32 µg·h/mL
- AUC [2]: 4.25 µg·h/mL
- AUC [3]: 7.39 µg·h/mL
- Cmax [2]: 0.429 µg/mL
- Cmax [3]: 0.625 µg/mL
- Tmax (human, plasma, po, 60 mg/d, Tmax, Day 1 of cycle 1, Cohort 1 (60 mg/d) (n = 3), oral QD, median (minimum, maximum)): 3 h
- Tmax (human, plasma, po, 60 mg/d, Tmax, Day 21 of cycle 1, Cohort 1 (60 mg/d) (n = 2), oral QD, median (minimum, maximum)): 2.48 h
- half-life (human, plasma, po, 60 mg/d, t1/2, Day 1 of cycle 1, Cohort 1 (60 mg/d) (n = 3), oral QD, mean (SD)): 15.1 h
- half-life (human, plasma, po, 60 mg/d, t1/2, Day 21 of cycle 1, Cohort 1 (60 mg/d) (n = 2), oral QD, mean (SD)): 18.1 h
- AUC [4]: 8.38 µg·h/mL
- Cmax [4]: 0.692 µg/mL
- Cmax (human, plasma, po, 90 mg/d, Day 21 of cycle 1, Cohort 2 (90 mg/d) (n = 9), oral QD, mean (SD)): 0.995 µg/mL
- Tmax (human, plasma, po, 90 mg/d, Tmax, Day 1 of cycle 1, Cohort 2 (90 mg/d) (n = 11), oral QD, median (minimum, maximum)): 3 h
- Tmax (human, plasma, po, 90 mg/d, Tmax, Day 21 of cycle 1, Cohort 2 (90 mg/d) (n = 9), oral QD, median (minimum, maximum)): 3.02 h
- half-life (human, plasma, po, 90 mg/d, t1/2, Day 1 of cycle 1, Cohort 2 (90 mg/d) (n = 11), oral QD, mean (SD)): 15.4 h
- half-life (human, plasma, po, 90 mg/d, t1/2, Day 21 of cycle 1, Cohort 2 (90 mg/d) (n = 9), oral QD, mean (SD)): 20.9 h
- Cmax (human, plasma, po, 120 mg/d, Day 1 of cycle 1, Cohort 3 (120 mg/d) (n = 4), oral QD, mean (SD)): 1.14 µg/mL
- Tmax (human, plasma, po, 120 mg/d, Tmax, Day 1 of cycle 1, Cohort 3 (120 mg/d) (n = 4), oral QD, median (minimum, maximum)): 3.01 h
- Tmax (human, plasma, po, 120 mg/d, Tmax, Day 21 of cycle 1, Cohort 3 (120 mg/d) (n = 1), oral QD, median (minimum, maximum)): 2.95 h
- half-life (human, plasma, po, 120 mg/d, t1/2, Day 1 of cycle 1, Cohort 3 (120 mg/d) (n = 4), oral QD, mean (SD)): 17.9 h
- AUC(0-t) (human, plasma, po, 120 mg/day): 25.6 µg·h/mL
